pIC50: −log10 of the molar value. “Also recorded” adds a separate entry of the source.
Tests used:
D2 receptor = target: T1, D2 receptor (Homo sapiens, UniProt P14416); test: D2 receptor function assay, calcium mobilization (FLIPR); assay type: cell-based; conditions: HEK293, antagonism of D2 receptor
T1 construct: expressed in transfected cells; host or cells: HEK293
Experimental: (§1) Bioactivity Test • I. D2 receptor affinity assay: The affinity of the compound to D2 receptor was determined by radioligand competition assay, and the cloned D2 receptor was expressed in HEK293 cell line. • II. D2 receptor function assay: The ability of the compound to antagonize the D2 receptor was determined using a calcium mobilization assay (FLIPR). • III. DAT receptor function assay: The ability of the compound to inhibit DAT was determined by neurotransmitter transporter absorption assay.
• Cell line: HEK293 • DMEM medium (Invitrogen) • Fetal bovine serum (FBS, Invitrogen) • L-Glutamine (Invitrogen) G418 (Invitrogen) • Blasticidin (Invitrogen)
• Fluo-4 Direct Kit (Invitrogen)
• 250 mM Probenecid solution was formulated: according to the kit instructions, 1 mL of FLIPR buffer salt solution was added to 77 mg probenecid just before needed. • 2× (8 μM) Fluo-4 Direct™ loading buffer was formulated: the number of tubes in Fluo-4 Direct™ needed for the experiment was melted in advance. Just before needed, 10 ml of FLIPR buffer salt solution and 0.2 mL of 250 mM Probenecid solution were added to each tube and vortexed in dark for more than 5 minutes.
• a) One tube of cells was taken from the liquid nitrogen tank and quickly thawed in 37° C. water bath. • b) The cell suspension was added to a centrifuge tube to which the preheated 20 ml medium was added in advance. • c) The centrifuge tube was centrifuged at 1000 rpm for 5 minutes at room temperature. • d) The supernatant was slowly decanted to avoid affecting the precipitated cells. • e) The cells were resuspended with 10-30 ml medium by pipetting the cells gently with a pipette. • f) The viability and number of cells were calculated with the cell counter. • g) The cells were diluted to 1×10^5 cells/ml with medium, and inoculated in the 384-well polylysine coated cell plate at 20 μL/well. • h) The plate was incubated in an incubator at 5% CO2, 37° C. for 16 to 20 hours.
10 μL of experimental buffer salt solution was added into the cell plate according to the set program, and the fluorescence signal was read. 10 μL of agonist reference compound was further added at a given concentration to the cell plate and the fluorescence signal was read. After reading, the data was derived by “Max-Min” and “Read 90 to Maximum Allowed” methods in the software and EC80 of the corresponding cell line was calculated, and the reference compound with a concentration of 6× EC80 was prepared. • f) The FLIPR instrument software was run. 10 μL of the compound to be tested and the reference compound at a given concentration were added into the cell plate according to the set program, and the fluorescence signal was read. 10 μL of reference compound agonist was further added at a concentration of 6× EC80 to the cell plate and the fluorescence signal was read. • g) Data Analysis • Calculation formula for data in the project:
Inhibitor % activity=100−(signal value per well−average value for high dose control group of inhibitor)/(average value for DMSO control group−average value for high dose control group of inhibitor)*100%.

DAT = DAT (Homo sapiens, UniProt Q01959); test: DAT transporter assay (neurotransmitter transporter absorption assay); assay type: cell-based
Experimental: as §1
• HBSS1×, REPES 20 mM, BSA 0.1%.
• Lyophilized fluorescent dye 1 vial, Assay buffer 10 mL.
• BTCP—hydrochloride (Sigma)
• i) The medium was preheated in 37° C. water bath in advance for more than 30 minutes for later use. • j) The preheated medium was taken out, disinfected with 75% alcohol, and put into a biosafety cabinet. • k) The cultured cells were taken out from the […], and the medium was removed by a vacuum pump. 1× DPBS was added, incubated for a moment, and then removed by a vacuum pump. Appropriate amount of 0.05% trypsin-EDTA was added for cell digestion. The digestion was terminated by 10% FBS medium, and the cells were pipetted and dispersed. • l) The dispersed cells were transferred into a 50 mL centrifuge tube with a pipette.
• a) The reference compound was diluted in a ratio of 1:3 to 10 concentration gradients with the detection buffer containing 0.1% BSA, with the highest concentration being 2 μM. The compound to be tested was diluted to 20 uM with the detection buffer containing 0.1% BSA. • b) A centrifuge (750 rpm, 15 s) was used to spin off the culture solution in the cell culture plate, and the compound solution in step 1 was transferred to the cell culture plate (25 uL/well). • HC (High control): 25 μL of 0.1% BSA detection buffer containing 0.2% DMSO. • LC (Low control): 25 μL of solution containing 2 μM positive antagonist. • c) After centrifugation at 300 rpm for 15 seconds, the plate was incubated at 37° C. for 30 minutes. After the incubation with the compound was completed, a dye solution (25 μL/well) was added and incubated at 37° C. for 30 minutes.
Inhibitor % activity=100−(signal value per well−average value for LC well)/(average value for H well−average value for LC well)*100%.

[1] = test system: Amphetamine-induced high locomotor activity in mice; test: Amphetamine-induced high locomotor activity (LMA) in mice; assay type: in vivo; parameters: Distance resulting from the activity, First 30 min / Distance resulting from the activity, Last 30 min: unit not given here; conditions: for Effect on Amphetamine-induced high locomotor activity compared with olanzapine (in words) / Inhibition of Amphetamine-induced high locomotor activity (in words): 5, 10, 20 mg/kg; for Effect on Amphetamine-induced high locomotor activity compared with olanzapine (in words): p.o. vs olanzapine 5.0 mg/kg p.o.; for Inhibition of Amphetamine-induced high locomotor activity (in words): p.o., P<0.05-0.01; for Distance resulting from the activity, First 30 min / Distance resulting from the activity, Last 30 min: Amphetamine 1.0 mg/kg s.c., male ICR mice
Experimental: The test compound MDC was a milky white powder and stored in a shade and cool place (formulated with 1% DMSO before use). […] Amphetamine, purchased from Sigma-Aldrich, was a white powder (formulated with normal saline before use). 1% DMSO was formulated by diluting pure DMSO (purity>99.5, purchased from Sigma) with normal saline.
Male ICR mice having weight 22±2 g were kept at 8 mice/cage with 12/12 hours light/dark cycle, temperature 23° C.±1° C., humidity 50% to 60%, free to eat and drink water.
The administration volume was 0.1 ml/10 g body weight; Amphetamine was freshly formulated with normal saline at a dose of 1.0 mg/kg and administered subcutaneously.
After one week of acclimation, mice were randomly divided into 6 groups according to their body weight: negative control group, model group, positive control group, and low dose group, medium dose group and high dose group for the test compound. 8-10 animals/group.
Group 1: Negative control group: Normal saline (s.c.)+1% DMSO (10.0 ml/kg, p.o.);
Group 2: Model group: Amphetamine (1.0 mg/kg, s.c.)+1% DMSO (10.0 ml/kg, p.o.);
Group 4: MDC low dose group: Amphetamine (1.0 mg/kg, s.c.)+MDC (5 mg/kg, p.o.);
Group 5: MDC medium dose group: Amphetamine (1.0 mg/kg, s.c.)+MDC (10 mg/kg, p.o.);
Group 6: MDC high dose group: Amphetamine (1.0 mg/kg, s.c.)+MDC (20 mg/kg, p.o.).
After administration, the animals were immediately placed in a locomotor activity box and recorded by Shanghai Jiliang animal video analysis system for 1 hour.
After the experiment, the activity of the animals within 1 hour was analyzed using the trajectory analysis software of Shanghai Jiliang animal video analysis system to obtain the total distance resulting from the activity.

[2] = 5 mg/kg p.o. (low dose group; olanzapine positive control)
[3] = 10 mg/kg p.o. (medium dose group)
[4] = 20 mg/kg p.o. (high dose group)

T1 sequence (P14416 whole entry): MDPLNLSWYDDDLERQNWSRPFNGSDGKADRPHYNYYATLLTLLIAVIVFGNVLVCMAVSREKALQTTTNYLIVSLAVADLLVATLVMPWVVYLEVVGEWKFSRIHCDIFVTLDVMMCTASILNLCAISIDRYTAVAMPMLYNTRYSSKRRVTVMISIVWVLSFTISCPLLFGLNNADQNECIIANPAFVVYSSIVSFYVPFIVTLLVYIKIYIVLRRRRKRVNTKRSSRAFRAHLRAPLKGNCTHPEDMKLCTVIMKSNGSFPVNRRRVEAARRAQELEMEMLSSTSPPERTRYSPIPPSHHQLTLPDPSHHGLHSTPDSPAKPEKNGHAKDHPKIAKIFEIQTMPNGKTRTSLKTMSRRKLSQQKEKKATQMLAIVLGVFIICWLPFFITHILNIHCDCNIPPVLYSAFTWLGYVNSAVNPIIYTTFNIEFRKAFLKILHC
Sequence of DAT (Q01959 whole entry, species assumed): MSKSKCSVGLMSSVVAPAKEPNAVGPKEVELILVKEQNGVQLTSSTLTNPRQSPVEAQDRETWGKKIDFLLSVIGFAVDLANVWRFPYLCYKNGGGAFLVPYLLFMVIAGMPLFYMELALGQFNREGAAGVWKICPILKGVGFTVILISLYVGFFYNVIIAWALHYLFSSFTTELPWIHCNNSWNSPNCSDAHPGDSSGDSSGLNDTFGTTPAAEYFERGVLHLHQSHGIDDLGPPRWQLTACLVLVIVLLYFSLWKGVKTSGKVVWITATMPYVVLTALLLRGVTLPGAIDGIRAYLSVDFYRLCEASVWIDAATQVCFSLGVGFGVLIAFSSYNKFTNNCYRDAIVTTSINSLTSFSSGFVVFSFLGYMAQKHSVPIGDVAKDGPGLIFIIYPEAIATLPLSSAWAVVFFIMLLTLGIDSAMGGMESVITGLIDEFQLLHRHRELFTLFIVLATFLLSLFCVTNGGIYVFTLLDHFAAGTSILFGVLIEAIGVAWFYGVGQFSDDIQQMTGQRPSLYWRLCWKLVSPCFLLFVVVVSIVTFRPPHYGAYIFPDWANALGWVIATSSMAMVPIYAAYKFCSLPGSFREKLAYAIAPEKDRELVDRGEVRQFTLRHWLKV

SMILES	pIC50 (D2 receptor)	pIC50 (DAT)	Effect on Amphetamine-induced high locomotor activity compared with olanzapine (in words) [1]	Inhibition of Amphetamine-induced high locomotor activity (in words) [1]	Distance resulting from the activity, First 30 min [1, 2]	Distance resulting from the activity, Last 30 min [1, 2]	Distance resulting from the activity, First 30 min [1, 3]	Distance resulting from the activity, Last 30 min [1, 3]	Distance resulting from the activity, First 30 min [1, 4]	Distance resulting from the activity, Last 30 min [1, 4]
Oc1cccc(C2CCN(Cc3c[nH]c4ccccc34)C2)c1 (racemic) [MDC-161502-002, 1-(indole-3-methyl)-3-(3-hydroxyphenyl)pyrrolidine]	8.70	6.74	equivalent to olanzapine; also recorded: better than olanzapine	significantly inhibited	284824	257329	250678	231296	180127	148036
O=S(=O)(CC(F)(F)F)Nc1cccc(C2CCN(Cc3c[nH]c4ccccc34)C2)c1 (stereo not shown) [MDC-161502-006, 1-(indole-3-methyl)-3-(3-trifluoroethanesulfonamidophenyl)pyrrolidine]	6.77	6.12			340368	318973	298763	257632	270378	231584
O=S(=O)(Nc1cccc(C2CCN(Cc3c[nH]c4ccccc34)C2)c1)c1cccs1 (stereo not shown) [MDC-161502-008, 1-(indole-3-methyl)-3-[3-(2-thiophenesulfonamido)phenyl]pyrrolidine]	8.27	6.03	equivalent to olanzapine	significantly inhibited	287643	264309	253945	220678	209673	219876

— patent US20210024498A1, “TETRAHYDROPYRROLE COMPOUND, PREPARATION METHOD THEREFOR, PHARMACEUTICAL COMPOSITION CONTAINING SAME, AND USE THEREOF” (MEDICONNS (SHANGHAI) BIOPHARMACEUTICAL CO., LTD, priority 2017, published 2021)
